Laboratory results reported in PMC10744608, “Simplified Synthesis of Renieramycin T Derivatives to Target Cancer Stem Cells via β-Catenin Proteasomal Degradation in Human Lung Cancer” (Marine Drugs, 2023).

What was measured:
Format in all cases: cell-based, human
[1] = tested on: H292 cells; assay: MTT cell viability assay
Description: (§1) The cell viability was assessed using an MTT assay, determining the half-maximal inhibitory concentration (IC50) to screen right-half RT analogs (DH_18, DH_21, DH_32, DH_35, DH_38, and DH_39). Human NSCLC cells (A549, H23, and H292) were seeded in a 96-well cell culture plate at a density of 1 × 10^4 cells per well and incubated for 24 h at 37 °C. Subsequently, the culture medium was aspirated, and a complete medium with varying concentrations (0–100 μM) of right-half RT analogs was added for 24 h. Following the removal of the compound-containing medium, an MTT reagent at a concentration of 4 mg/mL was applied and incubated for 3 h at 37 °C. The MTT reagent was replaced with 100 μL of DMSO to dissolve the formazan crystals. The measurement of the formazan product was conducted at 570 nm utilizing a microplate reader. RT served as the positive control in this experiment.

[2] = tested on: A549 cells; assay: MTT cell viability assay; settings: A549, 24 h treatment
Description: as §1

[3] = tested on: H23 cells; assay: MTT cell viability assay
Description: as §1

[4] = tested on: BEAS2B cells; assay: MTT cell viability assay, normal cells; settings: for IC50: BEAS2B normal cells, 24 h treatment, MTT
[5] = tested on: H292 cells; assay: Proliferation assay (MTT); settings: H292, 24 h, 25 nM
Description: (§2) An MTT assay was employed to evaluate the antiproliferative impact of the right-half RT analog, DH_32, over a period of three consecutive days. The human NSCLC cells lines A549, H23, and H292 were seeded at a cell density of 2 × 10^3 cells per well in a 96-well plate. The cells were exposed to low concentrations (0, 25, 50, and 100 nM) of DH_32 at various time points (0 h, 24 h, 48 h, and 72 h) and then incubated under 5% CO2 at 37 °C. Subsequently, the cell viability was assessed using an MTT assay at 0 h, 24 h, 48 h, and 72 h. The percentage of cell proliferation was determined by dividing the optical density (OD) of the cells at each time point by the OD of the non-treated control cells. In this experiment, RT served as the positive control.

[6] = tested on: A549 cells; assay: Proliferation assay (MTT)
Description: as §2

[7] = tested on: H23 cells; assay: Proliferation assay (MTT); settings: H23, 24 h, 25 nM
Description: as §2

[8] = tested on: H292 cells; assay: Nuclear staining assay (Hoechst 33342/PI); settings: H292, 0.5 μM, 24 h; for percentage of apoptosis: Hoechst 33342; for percentage of dead cells: PI staining
Description: (§3) The assessment of apoptosis and dead cell counts was performed through costaining with Hoechst 33342 and propidium iodide (PI). Human NSCLCs (1 × 10^4 cells per well) were seeded in a 96-well plate, incubated at 37 °C, and exposed to all right-half RT analogs at a concentration of 0.5 μM. After treatment, the cells were rinsed with PBS and subjected to co-staining with Hoechst 33342 (10 μg/mL) and propidium iodide (PI) (0.02 μg/mL) for 30 min at 37 °C. Fluorescence microscopy (Olympus 1X51 with a DP70 digital camera, Tokyo, Japan) was utilized to observe the fragmented nuclei indicative of apoptotic cells stained with Hoechst 33342 and the positive PI staining for dead cells. Subsequently, the percentages of apoptosis and dead cells were calculated. In this experiment, RT at a concentration of 0.5 μM served as the positive control.

[9] = tested on: A549 cells; assay: Nuclear staining assay (Hoechst 33342/PI); settings: A549, 0.5 μM, 24 h; for percentage of apoptosis: Hoechst 33342; for percentage of dead cells: PI staining
Description: as §3

[10] = tested on: H23 cells; assay: Nuclear staining assay (Hoechst 33342/PI); settings: H23, 0.5 μM, 24 h; for percentage of apoptosis: Hoechst 33342; for percentage of dead cells: PI staining
Description: as §3

[11] = tested on: H292 cells; assay: Colony formation assay; settings: H292, 25 nM, 24 h treatment then 7 days growth
Description: (§4) A clonogenic or colony formation assay was utilized to explore the capability of cancer cells to proliferate from single cells and form tumor colonies in response to DH_32 treatment. A single-cell suspension of NSCLC cells (A549, H23, and H292) was seeded at a density of 250 cells per well in a 6-well plate and permitted to adhere for 12 h. The cells were treated to different concentrations of DH_32 (0, 25, 50, and 100 nM) for a duration of 24 h. Subsequently, the medium containing the drug was aspirated, and fresh complete medium was introduced. The colonies were cultured for a period of 7 days, with the medium being renewed every 2 days. The colonies were washed with PBS, followed by fixation using a solution of methanol and acetic acid (3:1 v/v) for 5 min. Subsequently, they were stained with crystal violet (0.05% w/v in 4% paraformaldehyde) for 30 min. The excess crystal violet stain was washed away with distilled water until a clear background was obtained, and the samples were left to air-dry at room temperature. The colonies were photographed, and the captured images were analyzed using ImageJ software to determine the count of stained colonies. In this experiment, RT served as the positive control.

[12] = tested on: A549 cells; assay: Colony formation assay; settings: A549, 25 nM, 24 h treatment then 7 days growth
Description: as §4

[13] = tested on: H23 cells; assay: Colony formation assay; settings: H23, 25 nM, 24 h treatment then 7 days growth
Description: as §4

[14] = A549, 48 h, DH_32 25, 50, and 100 nM, RT 25 and 50 nM

SMILES	proliferation rate [5]	proliferation rate ([6]; A549, 24 h, 50 and 100 nM)	proliferation rate [6, 14]	proliferation rate [7]	percentage of apoptosis [8]	percentage of dead cells [8]	percentage of apoptosis [9]	percentage of dead cells [9]	percentage of apoptosis [10]	percentage of dead cells [10]	also measured
COC1=C(C)C(=O)C2=C(C1=O)[C@@H]1CN(Cc3ccc4ccccc4c3)[C@@H](C#N)[C@H](C2)N1C [DH_32, (1R,4R,5S)-9-methoxy-8,11-dimethyl-3-(naphthalen-2-ylmethyl)-7,10-dioxo-1,2,3,4,5,6,7,10-octahydro-1,5-epiminobenzo[d]azocine-4-carbonitrile]	substantial reduction in the proliferation rate	decreased proliferation rate	significant reduction in cell proliferation	substantial reduction in the proliferation rate	34.13 ± 0.97%	29.82 ± 1.26%	29.33 ± 0.51%	23.38 ± 0.96%	39.29 ± 1.88%	35.07 ± 1.67%	IC50 ([1]; Homo sapiens, NCI-H292, H292, 24 h treatment): 1.46 ± 0.06 µM; IC50 ([2]; Homo sapiens): 4.06 ± 0.24 µM; IC50 ([3]; Homo sapiens, NCI-H23, H23, 24 h treatment): 2.07 ± 0.11 µM; selectivity index (SI) ([4]; BEAS2B cells versus A549): 1.25; selectivity index (SI) ([4]; BEAS2B cells versus H23): 2.44; selectivity index (SI) ([4]; BEAS2B cells versus H292): 3.47; IC50 ([4]; Homo sapiens, BEAS-2B): 5.06 ± 0.22 µM; inhibition at 0.025 µM ([11]; Homo sapiens, NCI-H292, read-out: colony formation inhibition rate): 79.74 ± 0.14%; inhibition at 0.025 µM ([12]; Homo sapiens, read-out: colony formation inhibition rate): 90.83 ± 0.1%; inhibition at 0.025 µM ([13]; Homo sapiens, NCI-H23, read-out: colony formation inhibition rate): 78.49 ± 0.08%
CC=C(C)C(=O)OCC1c2c(c(O)c(C)c3c2OCO3)CC2C3C4=C(CC(C(C#N)N12)N3C)C(=O)C(C)=C(OC)C4=O (stereo not shown) [RT, Renieramycin T]	did not exhibit any change in their proliferation rate	did not affect the proliferation	did not exhibit any effect	did not exhibit any change in their proliferation rate	29.63 ± 0.47%	26.31 ± 1.04%	24.95 ± 1.32%	21.60 ± 0.99%	33.41 ± 0.53%	31.15 ± 0.48%	IC50 ([1]; H292, 24 h treatment): 1.52 ± 0.05 µM; IC50 [2]: 5.76 ± 0.23 µM; IC50 ([3]; H23, 24 h treatment): 2.93 ± 0.07 µM; IC50 [4]: 1.18 ± 0.02 µM; colony formation inhibition rate [11]: 32.22 ± 0.05%; colony formation inhibition rate [12]: 72.58 ± 0.07%; colony formation inhibition rate [13]: 58.75 ± 0.01%
